Experimental data taken from patent US11639325B2, “Compositions of polyhydroxylated benzophenones and methods of treatment of neurodegenerative disorders” (Massachusetts Institute of Technology, priority 2015, dated 2023).
pEC50: −log10 of the molar value. “Also recorded” adds a separate entry of the source. Read-outs that look alike come from different tables or passages of the source. One block for each molecule: values may come before it.

Experiments:
HDAC1 = molecular target: T1, HDAC1 (Homo sapiens, UniProt Q13547); assay: RapidFire Mass Spec assay of HDAC1 deacetylase activity with acetylated peptide substrates; type: biochemical; settings: for HDAC1 activation (deacetylase activity): Bio-H4K12ac and bio-p53K382ac peptide substrates; for reversal of HDAC1 inhibition by CI-994: HDAC1 preincubated with exifone 1 or 10 μM, or with CI-994 1, 5 or 10 μM for 2 hours
T1 construct: purchased BPS Biosciences (San Diego, Calif.)
T1 sequence (Q13547 whole entry): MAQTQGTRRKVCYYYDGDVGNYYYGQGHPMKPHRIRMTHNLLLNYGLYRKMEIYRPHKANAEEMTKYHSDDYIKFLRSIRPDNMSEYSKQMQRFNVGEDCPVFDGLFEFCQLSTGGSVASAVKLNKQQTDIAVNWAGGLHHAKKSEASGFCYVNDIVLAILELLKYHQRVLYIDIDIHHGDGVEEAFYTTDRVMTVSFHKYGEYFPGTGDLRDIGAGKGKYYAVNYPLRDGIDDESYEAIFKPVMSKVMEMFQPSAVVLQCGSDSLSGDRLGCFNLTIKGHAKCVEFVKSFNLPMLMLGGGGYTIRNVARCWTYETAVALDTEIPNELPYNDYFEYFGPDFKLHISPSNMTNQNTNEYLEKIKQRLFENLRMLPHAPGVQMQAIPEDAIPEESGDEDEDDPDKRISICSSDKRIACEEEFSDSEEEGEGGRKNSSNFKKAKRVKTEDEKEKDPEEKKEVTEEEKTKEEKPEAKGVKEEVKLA
Description: (§1) Bio-H4K12ac and Bio-p53K382ac peptides were purchased from Anaspec (Fremont, Calif.). Recombinant HDAC1 and HDAC2 were from BPS Biosciences (San Diego, Calif.). Biochemical assays for evaluation of enzyme activity were performed in 384-well microplates (Perkin Elmer, Waltham, Mass.). A high throughput mass spectrometry assay based on RapidFire™ platform (Agilent Technology, Wakefield, Mass.) was used for analysis of HDAC activity with acetylated peptide substrates derived from histone Bio-H4K12ac (Anaspec #64849) and non-histone Bio-p53K382ac (Anaspec #65046) sequences.
For determination of dose dependence curves, test compounds were preincubated with HDAC1 for 15 minutes. Histone deacetylase reactions were performed following addition of acetylated peptide substrate. The reactions were performed in standard 384-well plates in 50 μl volume with an assay buffer containing 50 mM Tris, pH 7.4, 100 mM KCl, and 0.01% Brij-35. Enzyme reactions were terminated by adding 5 μl of 10% formic acid. Experiments designed to determine the mechanism of action used a varied range of substrate and test compound concentrations. For determining the dose response of individual compounds, HDAC1 reactions were performed with 1 μM of the acetylated peptide substrate for durations ranging from 45 mins for Bio-p53K382ac and 60 minutes for Bio-H4K12ac, with the aim of keeping the substrate conversion below 10%.
For Mass Spec based detection, assay plates were transferred onto a high throughput RapidFire200 integrated autosampler/solid-phase extraction (SPE) system (Agilent Technologies, Wakefield, Mass.) coupled to an API4000 triple quadrupole mass spectrometer (Applied Biosystems, Concord, Ontario, Canada). Additional details for the RapidFire MS analysis are described elsewhere (Rye et al. Advances in label-free screening approaches for studying sirtuin-mediated deacetylation. J Biomol Screen. 2011 December; 16(10):1217-26; Rye et al. Advances in label-free screening approaches for studying histone acetyltransferases. J Biomol Screen. 2011 December; 16(10):1186-95). The peaks detected by Mass Spec were integrated and processed with RapidFire peak integration software (Agilent).
Percentage of substrate conversion was estimated from the RapidFire HTMS assay as a function of product and substrate mass spectrum peak areas and is equal to 100*[Product/(Product+Substrate)]. Percentage of enzyme activation=[(MIN-test compound)/(MIN−MAX)*100], where MINimal (0%) enzyme activity is observed in the presence of a histone deacetylase inhibitor [10 μM SAHA (suberoylanilide hydroxamic acid), SAHA; Vorinostat] and MAXimal enzyme activity of HDAC1 reaction in absence of test compound as 100% activity. MAX and MIN values were calculated from an average of 16 wells of a single column of 384 well plate. Data were analyzed and plotted using Graphpad Prism 6.
Activator potencies were compared by estimating the EC^1.5 values as a function of EC50 values and maximum relative velocity (RVmax) (Dai et al, 2010). EC^1.5 is the concentration of the activator required to achieve 1.5 fold activation (Dai et al, 2010). Data on enzyme activation were analyzed using non-essential enzyme activation (Segel, (1975) Enzyme Kinetics, John Wiley, New York).

HDAC2 = molecular target: T2, HDAC2 (Homo sapiens, UniProt Q92769); assay: RapidFire Mass Spec assay of HDAC2 deacetylase activity; type: biochemical; settings: FIG. 4; read-out: EC50 for HDAC2 activation
T2 construct: purchased BPS Biosciences (San Diego, Calif.)
T2 sequence (Q92769 whole entry): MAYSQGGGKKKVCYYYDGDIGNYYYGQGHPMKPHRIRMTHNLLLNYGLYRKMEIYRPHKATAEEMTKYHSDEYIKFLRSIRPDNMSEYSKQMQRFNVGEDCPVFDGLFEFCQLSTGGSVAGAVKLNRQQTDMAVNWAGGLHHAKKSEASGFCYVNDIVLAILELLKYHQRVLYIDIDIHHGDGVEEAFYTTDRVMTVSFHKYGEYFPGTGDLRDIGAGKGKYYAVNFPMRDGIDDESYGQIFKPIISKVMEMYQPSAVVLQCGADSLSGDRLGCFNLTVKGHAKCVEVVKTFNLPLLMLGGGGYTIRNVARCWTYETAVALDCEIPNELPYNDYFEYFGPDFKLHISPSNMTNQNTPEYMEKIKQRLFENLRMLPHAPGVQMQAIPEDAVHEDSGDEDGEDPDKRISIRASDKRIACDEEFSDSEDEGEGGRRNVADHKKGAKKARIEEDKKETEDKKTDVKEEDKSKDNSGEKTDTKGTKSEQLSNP
Description: as §1
For determination of dose dependence curves, test compounds were preincubated with HDAC1 for 15 minutes. […]
For Mass Spec based detection, assay plates were transferred onto a high throughput RapidFire200 integrated autosampler/solid-phase extraction (SPE) system (Agilent Technologies, Wakefield, Mass.) coupled to an API4000 triple quadrupole mass spectrometer (Applied Biosystems, Concord, Ontario, Canada). […] The peaks detected by Mass Spec were integrated and processed with RapidFire peak integration software (Agilent).
Percentage of substrate conversion was estimated from the RapidFire HTMS assay as a function of product and substrate mass spectrum peak areas and is equal to 100*[Product/(Product+Substrate)]. […] MAX and MIN values were calculated from an average of 16 wells of a single column of 384 well plate. […]

cultured neurons = assay: Immunostaining for γH2AX (DNA double-stranded breaks) in cultured neurons; type: cell-based
CK-p25 mice = assay: CK-p25 mouse model of neurodegeneration: immunohistochemistry and fear conditioning; type: in vivo
Description: (§2) For contextual fear conditioning, mice were put in the conditioning chamber (TSE systems) for 3 min, after which they received a one-time footshock (2 s, 0.8 mA). After 24 hr in the home cage, mice were placed in the same chamber and the freezing bouts, defined as a total lack of movement except for a heartbeat and respiration, were scored during every 10 s during a 3 min period.
(§3) Cued fear conditioning was performed by placing the animals in the test chamber for 3 min following exposure to the auditory cue (30 s, 20 kHz, 75 db sound pressure level) and a foot shock (2 s, 0.8 mA). Associative learning was assessed 24 hr later by placing the mice in the modified chamber and delivery of the identical auditory cue for 3 min.
CK-p25 mice are characterized by massive neuronal loss and severe memory impairment after 6 weeks of the p25 transgene induction (Cruz et al. Aberrant Cdk5 activation by p25 triggers pathological events leading to neurodegeneration and neurofibrillary tangles. Neuron. 2003 Oct. 30; 40(3):471-83). Exifone was chronically administered in CK-p25 mice, model, 3-month-old CK-p25 mice and control mice (no p25 overexpression) were induced for 6 weeks. They received either daily Exifone or vehicle for 3 weeks from week 3 to 6 during the induction period (FIG. 8A).
The associative memory in mice was examined by the contextual fear conditioning test described in Example 3. Mice were treated with vehicle control or exifone and freezing behavior observed 24 hours after contextual fear conditioning training.

5XFAD mice [1] = assay: 5XFAD mice behavioral tests (open field, contextual and cued fear conditioning); type: in vivo, mouse; settings: 50 mg/kg i.p. for 2 weeks
Description: 8-month-old males (WT or 5XFAD mice) received daily for two weeks of full treatment either vehicle (80% saline, 10% DMSO, 10% Tween-80) or exifone (FIG. 1A) (50 mg/kg). Administration was by intraperitoneal injection for 2 weeks. After 2 weeks of treatment, mice were handled more than 3 days before each behavioral test.
Open field test was monitored by TSE Multi Conditioning System, total distance traveled and the number of visits in center were measured using automated activity monitors.
To assess memory formation, fear-conditioning tests in rodents were used. In these paradigms, the extent of freezing behavior, which is defined as the complete lack of movement other than from respiration upon re-exposure to an aversive stimulus (e.g. mild foot shock) and an environmental cue in the form of a specific context (e.g. test chamber) or cue (e.g. a tone), provides an assessment of the strength of memory. […]
as §2, §3
Behavioral tests were performed on vehicle treated wild type (WT) mice and 5XFAD mice treated with either vehicle control or exifone. […] In both contexts, freezing behavior of the mice was scored for examination memory.

5XFAD mice [2] = assay: Western blotting of hippocampi of treated 5XFAD mice (histone deacetylation); type: in vivo, mouse; settings: 50 mg/kg i.p. for 2 weeks
Description: To determine the effects of restoration of HDAC1 activity in 5XFAD mice, mice were treated with exifone. Briefly, eight-month-old mice were administered doses of 50 mg/kg body weight exifone or vehicle control (10% DMSO, 10% Tween-80 and 80% saline) by intraperitoneal injection for 2 weeks. After 2 weeks of treatment, hippocampi were dissected and homogenized in RIPA buffer for Western blotting (FIGS. 10B and 10C).

5XFAD mice [3] = assay: LTP recording in hippocampal slices of treated 5XFAD mice; type: in vivo, mouse; settings: thirteen-month-old 5XFAD mice, 50 mg/kg i.p. for 2 weeks
Description: Thirteen-month-old mice were administered doses of 50 mg per kg body weight exifone or vehicle by intraperitoneal injection for 2 weeks before long-term potentiation (LTP) recordings. For LTP recording, mice were anesthetized with isoflurane and decapitated. Transverse hippocampal slices (400 μm thick) were prepared in ice-cold dissection buffer (in mM: 211 sucrose, 3.3 KCl, 1.3 NaH2PO4, 0.5 CaCl2, 10 MgCl2, 26 NaHCO3 and 11 glucose) using a Leica VT1000S vibratome (Leica). Slices were recovered in a submerged chamber with 95% O2/5% CO2-saturated artificial cerebrospinal fluid (ACSF) consisting of (in mM) 124 NaCl, 3.3 KCl, 1.3 NaH2PO4, 2.5 CaCl2, 1.5 MgCl2, 26 NaHCO3 and 11 glucose for 1 h at 28-30° C. For extracellular LTP recording, CA1 field potentials evoked by Schaffer collateral stimulation with bipolar electrode was measured every 30 s. After recording of stable baseline for 15 min, LTP was induced by single theta-burst stimulations (TBS, containing 10 brief bursts which consisted of four pulses at 100 Hz).

[4] = system: Human induced pluripotent stem cell (iPSC)-derived neurons; assay: Viability (Alamar Blue) of human iPSC-derived neurons under rotenone stress; type: cell-based
Excerpt: To further determine the effects of exifone on neurodegenerative disorders like frontotemporal dementia, Alzheimer's disease, and Parkinson's disease, a cellular model of mitochondrial dysfunction and tauopathy was used. Human induced pluripotent stem cell (iPSC)-derived neurons from a healthy control (FIG. 15A) and a frontotemporal dementia patient with a mutation in tau (FIG. 15B) were differentiated in culture for eight weeks (See Silva et al., Stem Cell Reports, 2016). […] Cell viability was measured by Alamar Blue (4 h) assay±SD. Statistical Analysis: Student T-Test; ^nsP>0.05, *P<0.05, **P<0.01, ***P<0.001; n=2 and technical triplicates.

[5] = increasing exifone concentrations
[6] = AD mice model (CK-p25 mice) as printed

Structure (SMILES): O=C(c1ccccc1)c1ccccc1 [Benzophenone]
HDAC1 activation (deacetylase activity) (HDAC1): did not cause HDAC1 activation | HDAC1 activation (deacetylase activity) (HDAC1; listed as non-hydroxylated benzophenone): does not

maximal activation of HDAC1 (HDAC1; 2 hour incubation of HDAC1 at room temperature prior to addition to reaction mix): up to nine fold | selectivity for HDAC1 activation compared with HDAC2 (HDAC1; FIG. 4): at least four fold more selective | pEC50 (HDAC1; FIG. 4, read-out: EC50 for HDAC1 activation (selectivity experiment)): 7.70 | pEC50 (HDAC1; FIGS. 1B and 1D, 2 hour incubation of HDAC1 at room temperature prior to addition to reaction mix, read-out: EC50 of HDAC1 activation): 7.35 | reversal of HDAC1 inhibition by CI-994 (HDAC1): capable of reversing inhibition | reversal of HDAC1 inhibition by CI-994 (HDAC1; listed as Exifone): partially reversed the inhibitory effect | HDAC1 activation at high substrate concentration (HDAC1; bio-H4K12ac peptide concentrations of 125 and 250 μM): No activation was observed | Vmax of HDAC1 reaction (HDAC1; [5]): increased the Vmax | apparent Km for the bio-H4K12ac peptide (HDAC1; [5]): decreased the apparent Km | mechanism of HDAC1 activation (HDAC1; varied substrate and activator concentrations): mixed non-essential reaction | pEC50 (HDAC2): 7.09 | basal locomotion in the open-field test (CK-p25 mice; [6]): without an effect on basal locomotion | open-field total distance traveled and number of visits to the center (5XFAD mice [1]): no effect on either of these parameters
Structure (SMILES): O=C(c1cc(O)c(O)c(O)c1)c1ccc(O)c(O)c1O [exifone]
HDAC1 activation (deacetylase activity) (HDAC1): dose-dependent increase in HDAC1 activation; also recorded: potent small molecule activator of HDAC1; also recorded: increases the deacetylase activity of HDAC1 | rate of HDAC1-mediated deacetylation (substrate conversion) (HDAC1; substrate 1 μM, HDAC1 40 nM, exifone 0.05 μM vs control): increased the rate of HDAC1-mediated reactions compared to control conditions; also recorded: increases the rate of deacetylation reaction by HDAC1 | γH2AX intensity (DNA damage) (cultured neurons): significantly reduced the intensity of γH2AX; also recorded: protection from DNA damage | cognitive function in cued fear-conditioning test (CK-p25 mice; [6]): not in cued fear-conditioning test | freezing behavior / cognitive function in contextual fear conditioning test (CK-p25 mice; CK-p25 mice, 24 hours after training): enhances the cognitive function; also recorded: comparable freezing behavior to vehicle-treated or exifone-treated control mice | neuronal loss / markers of neurodegeneration (γH2A.X, NeuN, Hoechst) in hippocampus (CK-p25 mice; CK-p25 mice, daily for 3 weeks during p25 induction): significantly ameliorated neuronal loss; also recorded: significant reduction of these markers of neurodegeneration; also recorded: ameliorates neuronal loss | freezing response in conditioned (contextual) fear conditioning test (5XFAD mice [1]): significantly increased | freezing response in cued fear conditioning test (5XFAD mice [1]): significantly increased | histone deacetylation and HDAC1 activity in hippocampus (5XFAD mice [2]): trend towards increased histone deacetylation and HDAC1 activity | LTP induction (5XFAD mice [3]): reinstatement of LTP induction | rescue of viability of tauopathy patient-derived neurons from rotenone-induced stress ([4]; 8 hours pre-treatment, then 18 hour rotenone, multiple doses): rescued the vulnerability

Structure (SMILES): C=C(C)[C@H]1Cc2c(ccc3c2O[C@@H]2COc4cc(OC)c(OC)cc4[C@@H]2C3=O)O1 [rotenone]
decrease in viability of tauopathy patient-derived neurons ([4]; rotenone, 18 hour): > 50%
